In US20260191998A1, “INDOLE PHTHALOCYANINE COMPOUND, PREPARATION METHOD THEREFOR, AND USE THEREOF IN TUMOR DIAGNOSIS IMAGING” (JIANGSU YAHONG MEDITECH CO., LTD., priority 2022, published 2026):

Tests used:
[1] = UV-VIS absorption spectra (optical property test); format: physicochemical; conditions: 10 μM, DMSO solution; for Absorbance × 10^4: at maximum absorption peak
Method: The UV-VIS absorption spectra of the compounds (10 μM, DMSO solution) were detected using Shimadzu UV2600 spectrophotometer, and the maximum absorption peak and absorbance of each compound were obtained.

[2] = tested on: human bladder cancer cell line UM-UC-3; test: In vitro imaging effect test with addition of BSP, UM-UC-3; format: cell-based; conditions: 250 μM BSP, compound 1-20 μM with surfactin 1:5, 30 minutes
Method: UM-UC-3 (1.5×10^4/well) were cultured in EMEM medium (containing 10% fetal bovine serum (FBS) and 1% antibiotics (100 U/mL penicillin and 100 U/mL streptomycin)) and seeded in a 96-well plate in advance. The plate was cultured in a 5% CO2 cell culture incubator at 37° C. overnight. The following day, the culture medium was sucked away, and 250 μM of BSP was added to the test wells and preconditioned for 10 minutes, followed by addition of the culture medium containing an appropriate concentration (1-20 μM) of the compound and surfactin (the molar ratio of the test compound to the surfactin being 1:5) with or without 250 μM of BSP, and then incubated for 30 minutes. The cells were rinsed three times with PBS solution, and the near-infrared fluorescence intensity in the bladder cancer cells was observed using an integrated fluorescence microscopic imaging system from Keyence. The conditions for near-infrared photography were Ex=775/50 nm and Em=845/55 nm.

| Compound | Absorption peak [1] [nm] | Absorbance × 10^4 [1] | Uptake by UM-UC-3 with or without BSP [2] |
| --- | --- | --- | --- |
| CC[N+]1=C(/C=C/C2=C(Cl)C(=C/C=C3/N(Cc4ccc(C(=O)Oc5ccccc5)cc4)c4ccccc4C3(C)C)/CCC2)C(C)(C)c2ccccc21 [Example 6, 2-((E)-2-((E)-2-chloro-3-(2-((E)-3,3-dimethyl-1-(4-(phenoxycarbonyl)bromo)indolin-2-ylidene)ethenyl)cyclohex-1-en-1-yl)ethenyl)-1-ethyl-3,3-dimethyl-3H-indol-1-ium Chloride] | 795 | 1.8 | may be weakened or enhanced by BSP |
| CC[N+]1=C(/C=C/C2=C(Cl)C(=C/C=C3/N(CCCCCC(=O)Oc4ccccc4)c4ccccc4C3(C)C)/CC2)C(C)(C)c2ccccc21 [Example 4, 2-((E)-2-((E)-2-chloro-3-(2-((E)-3,3-dimethyl-1-(6-oxo-6-phenoxyhexyl)indolin-2-ylidene)ethenyl)cyclopent-1-en-1-yl)ethenyl)-1-ethyl-3,3-dimethyl-3H-indol-1-ium Chloride] | 821 | 2.36 | may be weakened or enhanced by BSP |
| CC1(C)C(/C=C/C2=C(Cl)C(=C/C=C3/N(CCCCCC(=O)Oc4ccccc4)c4ccccc4C3(C)C)/C[N+](C)(C)C2)=[N+](CCCCCC(=O)Oc2ccccc2)c2ccccc21 [Example 14, 2-((E)-2-((E)-4-chloro-5-(2-((E)-3,3-dimethyl-1-(6-oxo-6-phenoxyhexyl)indolin-2-ylidene)ethenyl)-1,1-dimethyl-1,2,5,6-tetrahydropyridin-1-ium-3-yl)ethenyl)-3,3-dimethyl-1-(6-oxo-6-phenoxyhexyl)-3H-indol-1-ium Dichloride] | 767.5 | 1.71 | – |
| CC[N+]1=C(/C=C/C2=C(Oc3ccc(C#N)cc3)C(=C/C=C3/N(CCCCCC(=O)Oc4c(C)cccc4C)c4ccccc4C3(C)C)/CCC2)C(C)(C)c2ccccc21 [Example 114] | – | 2.46 | – |
| CC[N+]1=C(/C=C/C2=C(Cl)C(=C/C=C3/N(CCCCCC(=O)Oc4ccccc4)c4ccc5ccccc5c4C3(C)C)/CC2)C(C)(C)c2c1ccc1ccccc21 [Example 1A, 2-((E)-2-((E)-2-chloro-3-((E)-2-(1,1-dimethyl-3-(6-oxo-6-phenoxyhexyl)-1,3-dihydro-2H-benzo[e]indol-2-ylidene)ethenyl)cyclopent-1-en-1-yl)ethenyl)-3-ethyl-1,1-dimethyl-1H-benzo[e]indol-3-ium Chloride] | 860 | 2.82 | – |
| 2-((E)-2-((E)-2-bromo-3-(2-((E)-3,3-dimethyl-1-(6-oxo-6-phenoxyhexyl)indolin-2-ylidene)ethenyl)cyclohex-1-en-1-yl)ethenyl)-1,3,3-trimethyl-3H-indol-1-ium 2,2,2-trifluoroacetate [Example 58] | – | 2.21 | – |
| C[N+]1=C(/C=C/C2=C(Cl)C(=C/C=C3/N(CCCCCC(=O)Nc4ccccc4)c4ccccc4C3(C)C)/CC2)C(C)(C)c2ccccc21 [Example 83, 2-((E)-2-((E)-2-chloro-3-(2-((E)-3,3-dimethyl-1-(6-oxo-6-(anilino)hexyl)indol-2-methylene)ethylidene)cyclopent-1-en-1yl)ethenyl)-1,3,3-trimethyl-3H-indol-1-ium Chloride] | 820 | 3.079 | – |
| CC[N+]1=C(/C=C/C2=C(Cl)C(=C/C=C3/N(Cc4ccc(C(=O)Oc5ccccc5)cc4)c4ccc5ccccc5c4C3(C)C)/CCC2)C(C)(C)c2c1ccc1ccccc21 [Example 3] | 835 | 1.88 | – |
| CC[N+]1=C(/C=C/C2=C(Cl)C(=C/C=C3/N(CCCCCC(=O)O)c4ccc5ccccc5c4C3(C)C)/CC2)C(C)(C)c2c1ccc1ccccc21 [Example 1B, 2-((E)-2-((E)-3-((E)-2-(3-(5-carboxypentyl)-1,1-dimethyl-1,3-dihydro-2H-benzo[e]indol-2-ylidene)ethenyl)-2-chlorocyclopent-1-en-1-yl)ethenyl)-3-ethyl-1,1-dimethyl-1H-benzo[e]indol-3-ium Chloride] | 859.5 | 2.03 | – |
| CC1(C)C(/C=C/C2=C(Cl)C(=C/C=C3/N(CCCCCC(=O)Oc4ccccc4)c4ccccc4C3(C)C)/CC2)=[N+](CCCCCC(=O)O)c2ccccc21.[Cl-] [Example 89] | – | 1.86 | – |
| CC1(C)C(/C=C/C2=C(Cl)C(=C/C=C3/N(CCCCCC(=O)O)c4ccccc4C3(C)C)/CCC2)=[N+](CCCCCC(=O)O)c2ccccc21 [Example 85B] | 796.5 | 1.397 | – |
| CC[N+]1=C(/C=C/C2=C(Cl)C(=C/C=C3/N(CCCCCC(=O)Oc4ccccc4)c4ccc5ccccc5c4C3(C)C)/CCC2)C(C)(C)c2c1ccc1ccccc21 [Example 2] | 833.5 | 2.09 | may be weakened or enhanced by BSP |
| CC[N+]1=C(/C=C/C2=C(Cl)C(=C/C=C3/N(CCOCCCCC(=O)Oc4ccccc4)c4ccccc4C3(C)C)/CCC2)C(C)(C)c2ccccc21 [Example 37A, 2-((E)-2-((E)-2-chloro-3-(2-((E)-3,3-dimethyl-1-(2-((5-oxo-5-phenoxypentyl)oxy)ethyl)indolin-2-ylidene)ethenyl)cyclohex-1-en-1-yl)ethenyl)-1-ethyl-3,3-dimethyl-3H-indol-1-ium 2,2,2-trifluoroacetate] | 794.5 | 2.118 | – |
| CC[N+]1=C(/C=C/C2=C(Br)C(=C/C=C3/N(CCCCCC(=O)O)c4ccccc4C3(C)C)/CCC2)C(C)(C)c2ccccc21.[Cl-] [Example 96] | – | 2.45 | – |
| CC[N+]1=C(/C=C/C2=C(Cl)C(=C/C=C3/N(CCCCCC(=O)Oc4ccccc4)c4ccccc4C3(C)C)/CCC2)C(C)(C)c2ccccc21 [Example 12a, 2-((E)-2-((E)-2-chloro-3-(2-((E)-3,3-dimethyl-1-(6-oxo-6-phenoxyhexyl)indolin-2-ylidene)ethenyl)cyclohex-1-en-1-yl)ethenyl)-1-ethyl-3,3-dimethyl-3H-indol-1-ium chloride, reference compound] | – | – | may be weakened or enhanced by BSP |
| C[N+]1=C(/C=C/C2=C(Cl)C(=C/C=C3/N(CCCCCC(=O)O)c4ccccc4C3(C)C)/CCC2)C(C)(C)c2cc(C(=O)O)ccc21 [Example 119, 5-carboxy-2-((E)-2-((E)-3-(2-((E)-1-(5-carboxypentyl)-3,3-dimethylindolin-2-ylidene)ethenyl)-2-chlorocyclohex-1-en-1-yl)ethenyl)-1,3,3-trimethyl-3H-indol-1-ium 2,2,2-trifluoroacetate] | – | 1.52 | – |
| CC[N+]1=C(/C=C/C2=C(Oc3ccc(S(=O)(=O)O)cc3)C(=C/C=C3/N(CCCCCC(=O)Oc4ccccc4)c4ccccc4C3(C)C)/C[N+](C)(C)C2)C(C)(C)c2ccccc21 [Example 112] | 756 | 0.911 | – |
| CC[N+]1=C(/C=C/C2=C(Cl)C(=C/C=C3/N(CCCCC(=O)NCCCNC(=O)CCCCN4/C(=C/C=C5\CCCC(/C=C/C6=[N+](CC)c7ccccc7C6(C)C)=C5Cl)C(C)(C)c5ccccc54)c4ccccc4C3(C)C)/CCC2)C(C)(C)c2ccccc21.[Cl-].[Cl-] [Example 82] | 793.5 | 3.686 | – |
